Literature values in patent publication EP2166560A1, “Maldi matrices” (Max-Planck-Gesellschaft zur Förderung der Wissenschaften …, priority 2008, dated 2010).

Conditions: representative medium strong acid

pK: 10.15
Compound: CCCCCCCCCCCCCCCCCC(=O)O [stearic acid]
